Broadly, the LC50 is the concentration lethal to half of the exposed cells or organisms.

For three molecules, LC50 results are on record in ChEMBL document CHEMBL1144803, “Nardosinanols A-I and lemnafricanol, sesquiterpenes from several soft corals, Lemnalia sp., Paralemnalia clavata, Lemnalia africana, and Rhytisma fulvum fulvum” (J Nat Prod, 2008).

The data set can be described thus: Toxicity in brine shrimp. In kind it is organism-based. The conditions noted are these: artemia, in vivo.

On to `CC(=O)O[C@H]1C[C@H](O)[C@@]23C(=O)[C@@H](C)[C@@H]1[C@]2(C)[C@@H](C)CC[C@@H]3O` [LEMNAFRICANOL], for which the median lethal concentration (LC50) was determined as 320 nM. `C[C@@H](C=O)[C@H]1C(=O)CCC2=C[C@@H](O)C[C@H](C)[C@]21C` [NARDOSINANOL C] had an LC50 of 4000 nM. This LC50 is about 12-fold higher than that of the molecule before. The molecule `CC(=O)[C@H]1C[C@H](O)C2=CCC[C@H](C)[C@@]2(C)[C@H]1C(C)=O` [NARDOSINANOL G] returned a median lethal concentration (LC50) of 350 nM.
